Several values for one entry are separate records, joined by “and”; a condition that tells them apart may be missing. Identical values can stand only once. Like-named read-outs stand apart in the source and are kept apart here. Marks after values point to notes of the source that are not given here.
Legend:
[1] = system: RjOrl: Swiss mice; settings: 44 mA; Klein et al., 2017; cited from earlier work
[2] = system: CB1; settings: cited from earlier work
[3] = system: CB2 receptors; settings: cited from earlier work
[4] = in vivo; cited from earlier work
[5] = system: C57BL/6J mice; test: mouse maximal electroshock seizure threshold model (MEST); format: in vivo
Protocol: Vehicle=1:2:17 ethanol:Solutol® (Kolliphor® HS 15):saline: 1 mL of ethanol and 2 mL of solutol were warmed to 60 °C and 17 mL of 0.9% saline was added slowly. […]
Vehicle=0.5% HPMC and 0.1% Tween 80:0.5% HPMC and 0.1% Tween 80 in water.

[6] = system: RjOrl: Swiss mice; test: mouse 6 Hz (44 mA) model of partial seizures; format: in vivo; settings: for Mean Forelimb Clonus +/− SEM: score 0-2; for Change from vehicle (forelimb clonus): vs vehicle (HPMC)
From the text: The 6 Hz (44 mA) model of partial seizures, which detects anticonvulsant activity, follows that described by Brown et al. 1953.
[…] A decrease in forelimb clonus score is indicative of protection from seizure and an anticonvulsive effect.
When conducted at a 44 mA stimulus intensity in mice, the 6 Hz test can differentiate compounds with potential for the treatment of focal-onset seizures that are often resistant to current anti-epileptic drugs.
Male RjOrl: Swiss mice (Janvier Labs, 53940 Le Genest-Saint-Isle, France), 5 weeks old, weighing 27-38 g at the beginning of the experiment. Animals were acclimatized to the Test Facility for at least 5 days after delivery and randomly housed in groups of 5 to 8 in macrolon cages on wood litter with free access to food and water.
(§1) The animal house was maintained under artificial lighting (12 hours) between 7:00 and 19:00 in a controlled ambient temperature of 22±2 °C and relative humidity between 30-70%.
Before transcorneal stimulation, a drop of tetracaine solution (1%) was applied on each eye of the mouse for local anesthesia. Between 1-10 minutes later and at the designated pre-treatment (see below), the mice were administered a rectangular current (44 mA, rectangular pulse: 0.2 ms pulse width, 3 s duration, (6 Hz) via corneal electrodes connected to a constant current shock generator (Ugo Basile: type 7801).
The results for the number of seizures as reflected by forelimb clonus were recorded immediately after current administration. Forelimb clonus was scored as absent (0=no forelimb clonus), mild (1=clonus with one forelimb) and strong (2=clonus with both forelimbs). The experimenters were blinded to the treatment. […]
The administration volume was 10 mL/kg.
Due to the number of animals tested, the experiment was divided in 2 sub-experiments on 2 consecutive days with equivalent numbers of mice per group and per sub-experiment.
Data were discrete values so considered to be non-normally distributed based on validation data, therefore non-parametric tests were utilized. Quantitative data (scores) with the test substance were analyzed by comparing test compound-treated groups with the 1:2:17 vehicle control using Kruskal-Wallis test with Dunn's multiple comparisons test when the Kruskal-Wallis test was significant. Quantitative data with the reference substance were analyzed using Mann-Whitney U test as compared to saline vehicle.

[7] = system: C57BL/6J mice; test: mouse maximal electroshock seizure threshold model using minimal sample sizes (mini-MEST); settings: 30 min post dose
Protocol: An increase in seizure threshold is indicative of an anticonvulsive effect.
The ability of a test compound to alter the stimulus intensity, expressed as current (mA), required to induce the presence of tonic hind limb extensor convulsions, is assessed in the MEST.
In the mini-MEST test, a lower n number is used.
Male C57BL/6J mice were housed in groups of 6. Mice were kept under standard conditions (12 hour light cycle; light intensity of 25-75 lux) and fed a diet of certified rodent CR 14% protein rodent diet (LabDiet® 4CR4). Mice were 8-9 weeks old at the start of the study.
Naïve mice were acclimatised to the procedure room in their home cages for up to 7 days, with food and water available ad libitum.
All animals were weighed at the beginning of the study and randomly assigned to treatment groups based on a mean distribution of body weight across groups.
The first animal within a treatment group was given a shock at the expected or estimated CC50 current. For subsequent animals, the current was lowered or raised depending on the convulsions outcome from the preceding animal in log scale intervals.
Data generated from each treatment group were used to calculate the CC50±SEM values for the treatment group.
Vehicle: (5% ethanol, 10% Solutol® (Kolliphor® HS 15), 85% saline). 1 mL of ethanol, 2 mL of Solutol™ were warmed to 60 °C, in 17 mL of 0.9% saline.
Test compounds: 5-50 mg/kg in a 1:2:17 ethanol:Solutol®:saline formulation (as used for vehicle).

[8] = system: C57BL/6J mice; settings: cited from earlier work
[9] = system: C57BL/6J mice; settings: cited from earlier work; remark: listed apart in the source
[10] = system: DBA/2 mice; test: mouse audiogenic seizure test; format: in vivo; settings: 180 mg/kg i.p., 30 min
From the text: The Audiogenic Seizure Test, which detects anticonvulsant activity, follows that described by Durmüller et al., 1993. Mice of the DBA/2 strain undergo an age-dependent sequence of convulsions (wild-running, clonic convulsion, tonic convulsion and respiratory arrest) within 60 seconds of exposure to a loud sound of 110-120 dB. The type of convulsions are consistent with aspects of generalised seizure in humans.
Male DBA/2 mice (3-4 weeks old) were supplied by Janvier Labs (53940 Le Genest-Saint-Isle, France); weight range 6-13 g at the beginning of the experiment. Animals were acclimatized to the Test Facility for 1 day after delivery and randomly housed in groups of 5 in macrolon cages on wood litter with free access to food and water.
as §1
Mice were individually transferred (at 3-5 minutes intervals) from the preparation room into an adjacent experimental room and body temperature was measured using a rectal thermometer (Digital Laboratory Thermometer: Model BAT-12). Immediately after, they were placed in a Plexiglas jar (Diameter=40 cm; Height=35 cm) mounted with an electric bell (110-120 dB, supplier Leroy Merlin, France). Upon activating the bell, the occurrences and latencies to wild running fits, clonic and tonic seizures were measured. Deaths were also recorded. The bell was activated until a tonic seizure occurred, or for a maximum of 60 seconds.
The experiment included groups of 10 mice per group. Experimenters were only partially blinded to treatment group as pre-treatment times were different.
The test substance was evaluated at various doses, administered i.p. (10 ml/kg) 15 or 30 minutes before the test, and compared with a vehicle control group.
Due to the number of animals tested, the experiment was divided in 2 sub-experiments on 2 separate days (7 days apart) with 5 mice per group in each sub-experiment.
Data were tested for normality using d'Agostino-Pearson Test and found to not follow a normal distribution. Statistical outliers were not identified or removed because no behavioural outliers were identified. Quantitative data (latencies) with the test substance were analyzed by comparing treated groups with vehicle control using Kruskal-Wallis test followed by Dunn's multiple comparisons test. Quantitative data with the reference substance were analyzed using Mann-Whitney U test. Quantal data (frequencies) were analyzed by comparing treated groups with vehicle control using Fisher's Exact Probability test.

[11] = system: RjOrl: Swiss mice; test: mouse 6 Hz (44 mA) model of partial seizures; format: in vivo; settings: 200 mg/kg i.p., 30 min; vs vehicle (HPMC)
[12] = system: DBA/2 mice; settings: De Sarro et al., 2017; cited from earlier work

In the case of C=C(C)[C@@H]1CCC(C)=C[C@H]1c1c(O)cc(CCCCC)cc1O [CBD, cannabidiol], the “anticonvulsive effects in the 6 Hz test” value [1] is given as “exhibit anticonvulsive effects”, the “binding to CB1” value [2] is given as “does not bind” and the “binding to CB2 receptors” value [3] is given as “does not bind”. The “psychotropic effects associated with cannabis” value [4] was “does not induce the psychotropic effects”.
For CCCc1cc(O)c(-c2c(C)c(F)cn3ccnc23)c(O)c1 [Compound 11, 2-(6-Fluoro-7-methylimidazo[1,2-a]pyridin-8-yl)-5-propylbenzene-1,3-diol], the “CC50 +/− SEM” value ([5]; 5 mg/kg p.o., 15 min, HPMC vehicle) was 25.8 ± 1.9 mA, the “Change from vehicle (CC50)” value ([5]; 5 mg/kg p.o., 15 min, vs HPMC vehicle) was −3% and the “CC50 +/− SEM” value ([5]; 25 mg/kg p.o., 15 min, HPMC vehicle) was 37.5 ± 2.2 mA. The “Change from vehicle (CC50)” value ([5]; 25 mg/kg p.o., 15 min, vs HPMC vehicle) was 42%***, the “CC50 +/− SEM” value ([5]; 50 mg/kg p.o., 30 min, HPMC vehicle) was 100.8 ± 3.9 mA and the “Change from vehicle (CC50)” value ([5]; 50 mg/kg p.o., 30 min, vs HPMC vehicle) was 281%***. For the same compound, the “CC50 +/− SEM” value ([5]; 100 mg/kg p.o., 30 min, HPMC vehicle) was 250.0 ± 3.7 mA, the “Change from vehicle (CC50)” value ([5]; 100 mg/kg p.o., 30 min, vs HPMC vehicle) was 843%*** and the “Mean Forelimb Clonus +/− SEM” value ([6]; 25 mg/kg p.o., 15 min) was 0.85 ± 0.13. The “Change from vehicle (forelimb clonus)” value ([6]; 25 mg/kg p.o., 15 min) was −15%, the “Mean Forelimb Clonus +/− SEM” value ([6]; 50 mg/kg p.o., 30 min) was 0.55 ± 0.11 and the “Change from vehicle (forelimb clonus)” value ([6]; 50 mg/kg p.o., 30 min) was −45%. For the same compound, the “Mean Forelimb Clonus +/− SEM” value ([6]; 100 mg/kg p.o., 30 min) was 0.80 ± 0.14, the “Change from vehicle (forelimb clonus)” value ([6]; 100 mg/kg p.o., 30 min) was −20% and the “Mean Forelimb Clonus +/− SEM” value ([6]; 200 mg/kg p.o., 60 min) was 0.75 ± 0.12. The “Change from vehicle (forelimb clonus)” value ([6]; 200 mg/kg p.o., 60 min) was −25%.
In the case of Cc1c(Cl)cn2ccnc2c1-c1c(O)cc(Cl)cc1O [Compound 19, 5-Chloro-2-(6-chloro-7-methylimidazo[1,2-a]pyridin-8-yl)benzene-1,3-diol], the “CC50 +/− SEM” value ([7]; 50 mg/kg p.o.) is reported as 57.3 ± 1.9 mA and the “Change from vehicle (CC50)” value ([7]; 50 mg/kg p.o.) is reported as 86%.
For CCC(C)(C)c1cc(O)c(-c2c(C)c(Cl)cn3ccnc23)c(O)c1 [Compound 20, 2-(6-Chloro-7-methylimidazo[1,2-a]pyridin-8-yl)-5-(tert-pentyl)benzene-1,3-diol], the “CC50 +/− SEM” value ([7]; 30 mg/kg i.p.) was 40.6 ± 1.1 mA and the “Change from vehicle (CC50)” value ([7]; 30 mg/kg i.p.) was 59%.
In the case of CCC(C)(C)c1cc(O)c(-c2c(C)ccn3ccnc23)c(O)c1 [Compound 21, 2-(7-Methylimidazo[1,2-a]pyridin-8-yl)-5-(tert-pentyl)benzene-1,3-diol], the “CC50 +/− SEM” value ([7]; 30 mg/kg i.p.) is reported as under 33.0 mA.
With Cc1ccn2ccnc2c1-c1c(O)cc(C2CCCC2)cc1O [Compound 22, 5-Cyclopentyl-2-(7-methylimidazo[1,2-a]pyridin-8-yl)benzene-1,3-diol] the “CC50 +/− SEM” value ([7]; 30 mg/kg i.p.) was 57.3 ± 1.9 mA and the “Change from vehicle (CC50)” value ([7]; 30 mg/kg i.p.) was 124%.
In the case of CCCc1cc(O)c(-c2c(C)c(C3CC3)cn3ccnc23)c(O)c1 [Compound 23, 2-(6-Cyclopropyl-7-methylimidazo[1,2-a]pyridin-8-yl)-5-propylbenzene-1,3-diol], the “CC50 +/− SEM” value ([7]; 30 mg/kg i.p.) is reported as under 33.0 mA and the “Change from vehicle (CC50)” value ([7]; 30 mg/kg i.p.) is reported as under 52%.
For Cc1c(F)cn2ccnc2c1-c1c(O)cc(CCC(F)(F)F)cc1O [Compound 24, 2-(6-Fluoro-7-methylimidazo[1,2-a]pyridin-8-yl)-5-(3,3,3-trifluoropropyl)benzene-1,3-diol], the “CC50 +/− SEM” value ([7]; 25 mg/kg p.o.) was 92.9 ± 1.1 mA, the “Change from vehicle (CC50)” value ([7]; 25 mg/kg p.o.) was 272% and the “CC50 +/− SEM” value ([7]; 50 mg/kg p.o.) was over 131.0 mA. The “Change from vehicle (CC50)” value ([7]; 50 mg/kg p.o.) was over 424%.
For CN1C(=O)CN=C(c2ccccc2)c2cc(Cl)ccc21 [Diazepam, diazepam, reference compound], the “Change from vehicle (CC50)” value ([5]; 2.5 mg/kg i.p., 30 min, vs 1:1:18 ethanol:Kolliphor EL:saline vehicle) was 406%^###, the “Change from vehicle (CC50)” value ([5]; 2.5 mg/kg i.p., 30 min, vs 1:2:17 ethanol:Solutol:saline vehicle) was 439%^### and the “Change from vehicle (CC50)” value ([5]; 2.5 mg/kg i.p., 30 min, vs HPMC vehicle) was 652%*** and 526%***. The “anticonvulsive properties in the MEST test” value ([8]; mouse, in vivo) was “exhibit anticonvulsive properties” and the “anticonvulsive properties in the MEST test” value ([9]; mouse, in vivo) was “exhibit anticonvulsive properties”.
In the case of CCCC(CCC)C(=O)[O-].[Na+] [Sodium Valproate, sodium valproate, reference compound], the “CC50 +/− SEM” value ([5]; 150 mg/kg i.p., 30 min, 1:1:18 ethanol:Kolliphor EL:saline) is reported as 139.2 ± 2.1 mA, the “CC50 +/− SEM” value ([5]; 150 mg/kg i.p., 30 min, 1:2:17 ethanol:Solutol:saline) is reported as 104.2 ± 1.0 mA and the “CC50 +/− SEM” value ([5]; 150 mg/kg i.p., 30 min, study with HPMC vehicle) is reported as >300.0 mA and 215.8 ± 30.1 mA. For the same compound, the “Change from vehicle (CC50)” value ([5]; 150 mg/kg i.p., 30 min, vs 1:1:18 ethanol:Kolliphor EL:saline vehicle) was 457%^###, the “Change from vehicle (CC50)” value ([5]; 150 mg/kg i.p., 30 min, vs 1:2:17 ethanol:Solutol:saline vehicle) was 346%^### and the “Change from vehicle (CC50)” value ([5]; 150 mg/kg i.p., 30 min, vs HPMC vehicle) was >1043%*** and 714%***. For the same compound, the “Change from vehicle 1 (forelimb clonus)” value ([6]; 200 mg/kg i.p., 30 min, vs vehicle 1 (saline)) was −82%***, the “Change from vehicle 2 (forelimb clonus)” value ([6]; 200 mg/kg i.p., 30 min, vs vehicle 2 (1:2:17 ethanol:Kolliphor HS15:saline)) was −89%*** and the “Clonic convulsion - presence, %” value [10] was 30%. For the same compound, the “Tonic convulsion - presence, %” value [10] was 0%, the “Wild running - presence, %” value [10] was 30% and the “latencies to clonic convulsions (significance in words)” value [10] was “significantly increased”. The “latencies to tonic convulsions (significance in words)” value [10] was “significantly increased”, the “latencies to wild running (significance in words)” value [10] was “significantly increased” and the “number of mice displaying clonic convulsions (significance in words)” value [10] was “significantly decreased”. For the same compound, the “number of mice displaying tonic convulsions (significance in words)” value [10] was “significantly decreased”, the “number of mice displaying wild running (significance in words)” value [10] was “significantly decreased” and the “Clonic convulsion - presence, Total” value ([10]; number of mice, n = 10) was 1. The “Tonic convulsion - presence, Total” value ([10]; number of mice, n = 10) was 0, the “Wild running - presence, Total” value ([10]; number of mice, n = 10) was 1 and the “Change from vehicle (forelimb clonus)” value [11] was −60%***. The “protection from clonic convulsions, tonic convulsions and respiratory arrest” value [12] was “protect DBA/2 mice from clonic convulsions, tonic convulsions and respiratory arrest”.
For NC(=O)N1c2ccccc2C=Cc2ccccc21 [carbamazepine], the “protection from clonic convulsions, tonic convulsions and respiratory arrest” value [12] is listed as “protect DBA/2 mice from clonic convulsions, tonic convulsions and respiratory arrest”.
For picrotoxin, the seizure threshold ([8]; known convulsive agent) is listed as “a reduction in seizure threshold” and the seizure threshold ([9]; known convulsive agent) is listed as “a reduction in seizure threshold”.
